Assays:
[1] = topical 0.5, 1.0 and 1.5% AZM eye drops, for 24 hours; cited from earlier work
[2] = test system: human meibomian gland epithelial cells; assay: High-performance thin-layer chromatography of total cellular lipid extracts; format: cell-based; details: for accumulation of CE / accumulation of TG: 10 nM IGF-1 or 10 μg/mL AZM
Description: (§1) Cell numbers were enumerated with a hemocytometer. Cellular lipid and lysosome accumulation were examined by staining cells with: Filipin III (a fluorometric probe for identifying unesterified cholesterol), LipidTOX green neutral lipid stain, and LysoTracker® Red DND-99 (a fluorescent technique designed for labeling acidic organelles such as lysosomes). Lysosomal lamellar bodies were identified by transmission electron microscopy. In brief, after culture and treatment on 24 mm polycarbonate membrane transwell inserts (0.4 μm pore size), cells were fixed in a solution of 2% formaldehyde+2.5% glutaraldehyde, in 0.08 M sodium cacodylate buffer, pH 7.4, post-fixed with 2% osmium tetroxide in 0.1 M sodium cacodylate buffer, and stained en bloc with 2% aqueousuranyl acetate. Samples were then dehydrated in graded ethyl alcohol solutions and embedded by using the tEPON-812 epoxy resin kit. Cross sections ([…]) were stained with 1% toluidine blue in 1% sodium tetraborate solution. Ultra-thin sections (60-90 nm) were imaged with a transmission electron microscope interfaced with a digital CCD camera. For biochemical assessments, cellular lipids were extracted with chloroform and methanol from samples with the same amount of protein. Lipids were then evaluated with high-performance thin-layer chromatography. With regard to the staining results, three Filipin, five LipidTox and four LysoTracker studies were conducted, and each experiment was performed in duplicate. Four random pictures were taken of each group, and four random areas were selected for the measurement of fluorescent intensities. The HPTLC experiments were performed in duplicate more than three times. Image data were quantified with ImageJ (http://rsbweb.nib.gov/ij/index.html). Electron microscopic analyses were performed in triplicate.
FIG. 8a illustrates the effect of AZM on the expression of cholesterol ester (CE), free cholesterol (FC), phosphatidylethanolamine (PE), phosphatidylcholine (PC), and phosphatidylinositol (PI) inhuman meibomian gland epithelial cells. Cells were treated with vehicle or 10 μg/ml AZM for 5 days before performing chromatographic analyses of total lipid extracts. FIG. 8b illustrates band intensity of the cells shown in FIG. 8a measured using ImageJ. Control band intensity was set to 1, and data (mean±SE) are reported as fold-change compared to control values. *p<0.05,**p<0.005, versus control. Band intensity analysis includes data from at least three independent experiments.
FIGS. 14a and 14b illustrate the effect of IGF-1, AZM, and IFG-1+AZM combination on the accumulation of CE, TG, FC, PE, and PC. […] FIG. 14b quantifies band intensity using ImageJ. The control band intensity was set to 1, and data (mean 6 SE) were reported as fold-change compared with control values. […] Other bands are unidentified lipids. Band intensity analysis included data from three independent experiments.

[3] = test system: human meibomian gland epithelial cells; assay: Transmission electron microscopy of lysosomal lamellar bodies; format: cell-based; details: 10 μg/ml, 5 days
Description: as §1, with “With regard to the staining results, three Filipin, five LipidTox and four LysoTracker studies were conducted, and each experiment was performed in duplicate. Four random pictures were taken of each group, and four random areas were selected for the measurement of fluorescent intensities. The HPTLC experiments were performed in duplicate more than three times.” left out, “Electron microscopic analyses were performed in triplicate.” left out

[4] = test system: immortalized human meibomian gland epithelial cells; assay: LipidTOX green neutral lipid staining (lipid accumulation); format: cell-based; details: 10 nM each hormone, up to 13 days
[5] = test system: human meibomian gland epithelial cells; assay: Immunoblot of signaling pathways (Akt, FoxO1, ERK, JAK2/STAT5); format: cell-based
Method: The disclosure turns now to sodium dodecyl sulfate-polyacrylamide gel, electrophoresis, and immunoblots. Cells were directly lysed in Laemmli buffer supplemented with 1% protease inhibitor cocktail (Sigma-Aldrich) and 5% β-mercaptoethanol (Sigma-Aldrich). Lysates were heated at 95° C. for 10 minutes, separated by sodium dodecyl sulfate-polyacrylamide gel electrophoresis on 10% Tris-glycine precast gels, and transferred to polyvinylidene difluoride membranes. Rabbit or mouse antibodies used were specific for phosphorylated Akt (p-Akt), pan-Akt, p-FoxO1, FoxO1, p-JAK2, JAK2, and β-actin; for p-ERK, ERK-2, STAT5, and the precursor form of SREBP-1; and for p-STAT5. Membranes were blocked with 5% bovine serum albumin in Tris-buffered saline containing 0.01% polysorbate 20. All primary antibodies were diluted to 1:1000 in blocking buffer except for p-Akt (1:4000), p-ERK (1:2000), ERK-2 (1:4000), SREBP-1 (1:200), and β-actin (1:10 000). Horseradish peroxidase-conjugated secondary antibodies were goat anti-rabbit IgG and Fc-specific goat anti-mouse IgG diluted to 1:5000. Proteins were visualized with enhanced chemiluminescent substrate or with ultrasensitive chemiluminescent substrate. Densitometry was performed with image-processing software.
To determine whether IGF-1 promotes the phosphorylation of Akt in human meibomian gland epithelial cells, cells were cultured under proliferating or differentiating conditions and then exposed to IGF-1 for 15 minutes.
FIGS. 9a, 9b, and 9c illustrate the effects of insulin-like growth factor 1 (IGF-1) and growth hormone (GH) on signaling pathways in human meibomian gland epithelial cells. Cells were cultured in keratinocyte serum-free medium containing epidermal growth factor (EGF) and bovine pituitary extract (BPE) for 2 days and then keratinocyte serum-free medium alone overnight or were cultured in 10% fetal bovine serum (FBS) medium for 5 to 7 days and in 1% FBS medium overnight. Cells were then incubated with vehicle or a 10 μM concentration of LY294002 for 2 hours, followed by IGF-1 or GH treatment for 15 minutes. Cell lysates were evaluated on immunoblotting. […] These experiments were repeated at least 3 times with similar results.
To assess whether GH activates Akt, FoxO1, ERK-2, or its classic (i.e., JAK2 and STAT5) signaling pathways in human meibomian gland epithelial cells, cells were cultured in proliferating or differentiating media, and were exposed to a 10 nM concentration of GH for 15 minutes, and processed for immunoblot analyses. […]

[6] = test system: immortalized human meibomian gland cells; assay: 13-cis RA-induced late apoptosis/necrosis; format: cell-based

CC[C@H]1OC(=O)[C@H](C)[C@@H](O[C@H]2C[C@@](C)(OC)[C@@H](O)[C@H](C)O2)[C@H](C)[C@@H](O[C@@H]2O[C@H](C)C[C@H](N(C)C)[C@H]2O)[C@](C)(O)C[C@@H](C)CN(C)[C@H](C)[C@@H](O)[C@]1(C)O [Azithromycin]
tear concentration [1]: above 7 μg/ml
accumulation of CE ([2]; 7 days): significant effect
accumulation of TG ([2]; 7 days): significant effect
accumulation of PE ([2]; 10 μg/mL AZM, 7 days): significant effect
accumulation of esterified cholesterol (CE) ([2]; 10 μg/ml, 5 days): significantly promotes an accumulation
accumulation of free cholesterol (FC) ([2]; 10 μg/ml, 5 days): significantly promotes an accumulation
accumulation of phosphatidylcholine (PC) ([2]; 10 μg/ml, 5 days): significantly promotes an accumulation
accumulation of phosphatidylethanolamine (PE) ([2]; 10 μg/ml, 5 days): significantly promotes an accumulation
accumulation of phosphatidylinositol (PI) ([2]; 10 μg/ml, 5 days): significantly promotes an accumulation
lysosomal lamellar bodies [3]: many of these lysosomes appear to be onion-shaped lamellar bodies

GH: human growth hormone
accumulation of lipid [4]: significant accumulation of lipid
phosphorylation of extracellular-signal-regulated kinases (ERKs) [5]: increase the phosphorylation
activation of Akt, FoxO1, ERK-2, JAK2 and STAT5 ([5]; 10 nM, 15 minutes, proliferating or differentiating media): did not show that GH elicited effects
activation of Akt, FoxO1, ERK-2, JAK2 and STAT5 ([5]; doses of 0.05 to 50 nM): negative results

IGF-1: recombinant human insulin-like growth factor 1
accumulation of CE ([2]; 7 days): significant effect
accumulation of TG ([2]; 7 days): significant effect
accumulation of lipid [4]: significant accumulation of lipid
phosphorylation of extracellular-signal-regulated kinases (ERKs) [5]: increase the phosphorylation
phosphorylation of ERK ([5]; 10 nM, 15 minutes, 2 studies enhanced, 3 no influence): inconsistent effect
phosphorylation of FoxO1 ([5]; 10 nM, 15 minutes, differentiating cells): increased phosphorylation of FoxO1
culture condition in which Akt and FoxO1 phosphorylation occurred ([5]; 10 nM, 15 minutes, proliferating or differentiating conditions): differentiating but not proliferating cells
concentration at which p-Akt effect became maximal ([5]; IGF-1 for 15 minutes): 10 nM
concentration at which p-Akt effect could be detected ([5]; IGF-1 for 15 minutes): 1 nM
expression of p-Akt ([5]; IGF-1 for 15 minutes, differentiating cells): dose-dependent expression of p-Akt
phosphorylation of Akt ([5]; within minutes): increases the phosphorylation of Akt
13-cis RA-induced late apoptosis/necrosis [6]: attenuates
